The values below are quoted from earlier work in US20100034838A1, “Transdermal Administration of Active Agents for Systemic Effect” (priority 2005, published 2010).

SMILES strings stand for the structures.

For `CN1CCCC1c1cccnc1` (centres unmarked) [nicotine], the “nicotine levels in the blood” value (nicotine patches, approximately 4-6 hours after adhesion of a medicinal patch to the skin) is 10 to 15 ng/mL. Also, the blood nicotine peak result (smoking a cigarette, approximately 5 minutes after smoking is commenced) was “about 25 ng/ml”.
